Counter-ions that a name gives are not always drawn.
The compounds below were run against T1, recombinant human baculovirus-expressed GST-tagged FASN (Homo sapiens, UniProt P49327) (assay: FASN enzyme activity assay, fluorescence-based detection of CoA with CPM). Settings: 5 nM FASN, 150 μM NADPH, 10 μM acetyl-CoA, 25 μM malonyl-CoA, 90 minutes incubation; read-out: IC50 data for Compounds of Formulae I-V/V(a): Activity.
T1 construct: GST
Assay type: biochemical
Summary of the method: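 Human GST-tagged FASN, baculovirus-expressed (5 nM), in 50 mM HEPES pH 7.5 with 150 μM NADPH, 10 μM acetyl-CoA, 25 μM malonyl-CoA, 0.5% DMSO; malonyl-CoA-started, 90 min. Released CoA detected with CPM (50 μM dilution), 30 min, fluorescence ex 390/em 530. IC50 from variable-slope sigmoidal fit of % inhibition versus log concentration.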

T1 sequence (P49327 whole entry): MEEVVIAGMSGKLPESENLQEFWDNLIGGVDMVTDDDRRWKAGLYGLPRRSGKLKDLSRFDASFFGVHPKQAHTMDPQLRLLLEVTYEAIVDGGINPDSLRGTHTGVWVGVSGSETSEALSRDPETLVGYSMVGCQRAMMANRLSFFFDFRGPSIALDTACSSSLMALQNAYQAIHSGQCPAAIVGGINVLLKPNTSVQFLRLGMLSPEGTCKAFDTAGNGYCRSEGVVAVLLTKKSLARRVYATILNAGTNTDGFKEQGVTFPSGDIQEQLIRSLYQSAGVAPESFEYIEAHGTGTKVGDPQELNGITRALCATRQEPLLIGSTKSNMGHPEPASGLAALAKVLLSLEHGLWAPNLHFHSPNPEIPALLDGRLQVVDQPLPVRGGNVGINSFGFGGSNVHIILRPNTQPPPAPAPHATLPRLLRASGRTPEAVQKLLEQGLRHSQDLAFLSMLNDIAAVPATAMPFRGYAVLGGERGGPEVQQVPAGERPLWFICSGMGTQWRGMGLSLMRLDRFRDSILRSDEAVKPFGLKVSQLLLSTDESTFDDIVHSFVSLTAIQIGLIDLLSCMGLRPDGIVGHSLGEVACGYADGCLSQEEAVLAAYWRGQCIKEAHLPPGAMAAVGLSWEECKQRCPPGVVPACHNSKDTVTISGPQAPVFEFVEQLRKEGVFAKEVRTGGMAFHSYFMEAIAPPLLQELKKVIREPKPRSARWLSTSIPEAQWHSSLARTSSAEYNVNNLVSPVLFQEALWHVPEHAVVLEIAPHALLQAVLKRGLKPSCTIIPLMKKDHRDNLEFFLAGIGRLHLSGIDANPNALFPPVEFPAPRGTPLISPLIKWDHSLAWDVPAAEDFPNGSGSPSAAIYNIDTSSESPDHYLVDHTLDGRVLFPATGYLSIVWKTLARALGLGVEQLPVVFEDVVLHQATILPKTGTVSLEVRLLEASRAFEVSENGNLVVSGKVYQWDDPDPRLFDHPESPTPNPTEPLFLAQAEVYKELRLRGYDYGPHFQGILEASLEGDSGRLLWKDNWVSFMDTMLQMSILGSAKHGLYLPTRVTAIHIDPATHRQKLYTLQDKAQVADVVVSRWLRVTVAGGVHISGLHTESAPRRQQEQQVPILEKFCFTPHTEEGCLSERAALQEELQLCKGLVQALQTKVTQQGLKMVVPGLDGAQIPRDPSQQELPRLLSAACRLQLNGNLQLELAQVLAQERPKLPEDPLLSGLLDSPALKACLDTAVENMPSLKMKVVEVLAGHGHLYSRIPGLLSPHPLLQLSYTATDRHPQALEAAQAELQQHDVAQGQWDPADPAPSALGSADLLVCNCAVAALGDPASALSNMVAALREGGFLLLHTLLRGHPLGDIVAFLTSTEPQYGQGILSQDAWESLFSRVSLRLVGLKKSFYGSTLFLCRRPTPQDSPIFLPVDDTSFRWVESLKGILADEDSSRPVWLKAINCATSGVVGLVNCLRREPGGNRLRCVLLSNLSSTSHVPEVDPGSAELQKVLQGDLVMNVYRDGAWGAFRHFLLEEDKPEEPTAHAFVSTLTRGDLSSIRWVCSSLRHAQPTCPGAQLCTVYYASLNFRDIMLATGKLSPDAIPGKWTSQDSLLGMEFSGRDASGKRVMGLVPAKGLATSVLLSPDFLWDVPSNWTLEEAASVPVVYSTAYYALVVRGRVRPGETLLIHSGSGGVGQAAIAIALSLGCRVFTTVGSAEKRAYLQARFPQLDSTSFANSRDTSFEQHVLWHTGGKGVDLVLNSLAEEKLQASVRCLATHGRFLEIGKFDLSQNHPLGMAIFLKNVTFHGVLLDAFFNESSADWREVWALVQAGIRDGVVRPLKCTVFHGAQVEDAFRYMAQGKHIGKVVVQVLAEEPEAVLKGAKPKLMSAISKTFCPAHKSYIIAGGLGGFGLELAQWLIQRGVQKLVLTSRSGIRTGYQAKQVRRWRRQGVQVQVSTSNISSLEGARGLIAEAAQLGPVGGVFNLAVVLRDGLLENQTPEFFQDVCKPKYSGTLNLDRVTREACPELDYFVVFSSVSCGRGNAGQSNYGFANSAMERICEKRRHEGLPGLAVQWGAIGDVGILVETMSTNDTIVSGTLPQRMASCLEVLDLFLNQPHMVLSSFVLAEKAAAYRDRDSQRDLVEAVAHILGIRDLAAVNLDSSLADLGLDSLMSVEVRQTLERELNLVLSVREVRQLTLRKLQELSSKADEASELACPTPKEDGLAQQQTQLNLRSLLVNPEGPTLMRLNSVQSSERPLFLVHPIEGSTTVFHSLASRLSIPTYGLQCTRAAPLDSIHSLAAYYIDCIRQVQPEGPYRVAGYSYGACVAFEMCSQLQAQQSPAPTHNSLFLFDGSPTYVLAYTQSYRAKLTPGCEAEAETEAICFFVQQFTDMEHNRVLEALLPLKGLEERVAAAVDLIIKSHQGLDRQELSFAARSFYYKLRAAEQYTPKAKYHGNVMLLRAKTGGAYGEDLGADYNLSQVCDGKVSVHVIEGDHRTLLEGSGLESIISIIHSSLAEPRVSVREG

IC50 | SMILES
1 to 99 nM | CCc1cc2cc(-c3ccc(OC4CCN(C(=O)[C@H]5CCCO5)CC4)cc3)ccc2cn1 [Example 476, {4-[4-(3-Ethylisoquinolin-6-yl)-phenoxy]-piperidin-1-yl}-(R)-tetrahydro-furan-2-yl-methanone]
1 to 99 nM | O=C(C1CC1)N1CCC(Oc2ccc(-c3cnc4cc(F)ccc4c3)cc2)CC1 [Example 477, Cyclopropyl-{4-[4-(7-fluoroquinolin-3-yl)-phenoxy]-piperidin-1-yl}-methanone]
1 to 99 nM | CCC(=O)N1CCC(Oc2ccc(-c3cnc4cc(F)ccc4c3)cc2)CC1 [Example 478, 1-{4-[4-(7-Fluoroquinolin-3-yl)-phenoxy]-piperidin-1-yl}-propan-1-one]
1 to 99 nM | O=C([C@H]1CCCO1)N1CCC(Oc2ccc(-c3cnc4cc(F)ccc4c3)cc2)CC1 [Example 479, {4-[4-(7-Fluoroquinolin-3-yl)-phenoxy]-piperidin-1-yl}-(R)-tetrahydro-furan-2-yl-methanone]
1 to 99 nM | O=C([C@H]1CCCO1)N1CCC(Oc2ccc(-c3ccc4cnc(C5CC5)cc4c3)cc2)CC1 [Example 480, {4-[4-(3-Cyclopropylisoquinolin-6-yl)-phenoxy]-piperidin-1-yl}-(R)-tetra-hy drofuran-2-yl-methanone]
1 to 99 nM | Cc1nccc2cc(-c3ccc(OC4CCN(C(=O)C5CC5)CC4)cc3)ccc12 [Example 481, Cyclopropyl-{4-[4-(1-methylisoquinolin-6-yl)-phenoxy]-piperidin-1-yl}-methanone]
1 to 99 nM | Cc1ccc2cc(-c3ccc(OC4CCN(C(=O)[C@H]5CCCO5)CC4)cc3)cnc2c1 [Example 482]
1 to 99 nM | CCC(=O)N1CCC(Oc2ccc(-c3cnc4ccc(C)cc4c3)cc2)CC1 [Example 483, 1-{4-[4-(6-Methylquinolin-3-yl)-phenoxy]-piperidin-1-yl}-propan-1-one, HCl]
100 to 999 nM | Cc1ccc2ncc(-c3ccc(OC4CCN(C(=O)C5CC5)CC4)cc3)cc2c1 [Example 484, Cyclopropyl-{4-[4-(6-methylquinolin-3-yl)-phenoxy]-piperidin-1-yl}-methanone, HCl]
1 to 99 nM | Cc1ccc2ncc(-c3ccc(OC4CCN(C(=O)[C@H]5CCCO5)CC4)cc3)cc2c1 [Example 485, {4-[4-(6-Methylquinolin-3-yl)-phenoxy]-piperidin-1-yl}-(R)-tetrahydro-furan-2-yl-methanone, HCl]
1 to 99 nM | CCC(=O)N1CCC(Oc2ccc(-c3cnc4c(C)cccc4c3)cc2)CC1 [Example 486, 1-{4-[4-(8-Methylquinolin-3-yl)-phenoxy]-piperidin-1-yl}-propan-1-one, HCl]
1 to 99 nM | Cc1cccc2cc(-c3ccc(OC4CCN(C(=O)C5CC5)CC4)cc3)cnc12 [Example 487, Cyclopropyl-{4-[4-(8-methylquinolin-3-yl)-phenoxy]-piperidin-1-yl}-methanone]
1 to 99 nM | Cc1cccc2cc(-c3ccc(OC4CCN(C(=O)[C@H]5CCCO5)CC4)cc3)cnc12 [Example 488, {4-[4-(8-Methylquinolin-3-yl)-phenoxy]-piperidin-1-yl}-(R)-tetrahydro-furan-2-yl-methanone]
1000 to 10000 nM | COc1ccc(-c2ccc(OC3CCN(C(=O)OC(C)(C)C)CC3)cc2)cc1OC [Example 489, 4-(3′,4′-Dimethoxybiphenyl-4-yloxy)-piperidine-1-carboxylic acid t-butyl ester]
1000 to 10000 nM | CC(C)(C)OC(=O)N1CCC(Oc2ccc(-c3ccc(C#N)cc3)cc2)CC1 [Example 490, 4-(4′-Cyano-biphenyl-4-yloxy)-piperidine-1-carboxylic acid t-butyl ester]
100 to 999 nM | CCC(=O)N1CCC(Oc2ccc(-c3ccc(OC)c(OC)c3)cc2)CC1 [Example 491, 1-[4-(3′,4′-Dimethoxy-biphenyl-4-yloxy)-piperidin-1-yl]-propan-1-one]
1000 to 10000 nM | COc1ccc(-c2ccc(OC3CCN(C(=O)C(C)C)CC3)cc2)cc1OC [Example 492, 1-[4-(3′,4′-Dimethoxybiphenyl-4-yloxy)-piperidin-1-yl]-2-methyl-propan-1-one]
1000 to 10000 nM | CCC(=O)N1CCC(Oc2ccc(-c3ccc(C#N)cc3)cc2)CC1 [Example 493, 4′-(1-Propionyl-piperidin-4-yloxy)-biphenyl-4-carbonitrile]
1000 to 10000 nM | CC(C)C(=O)N1CCC(Oc2ccc(-c3ccc(C#N)cc3)cc2)CC1 [Example 494, 4′-(1-Isobutyrylpiperidin-4-yloxy)-biphenyl-4-carbonitrile]
100 to 999 nM | N#Cc1ccc(-c2ccc(OC3CCN(C(=O)C4CC4)CC3)cc2)cc1 [Example 495, 4′-(1-Cyclopropanecarbonyl-piperidin-4-yloxy)-biphenyl-4-carbonitrile]
1000 to 10000 nM | CCC(=O)N1CCC(Oc2cccc(-c3cnc4ccccc4c3)c2)CC1 [Example 496, 1-[4-(3-Quinolin-3-yl-phenoxy)-piperidin-1-yl]-propan-1-one]

IC50 | SMILES
1000 to 10000 nM | O=C(C1CC1)N1CCC(Oc2cccc(-c3cnc4ccccc4c3)c2)CC1 [Example 497, Cyclopropyl-[4-(3-quinolin-3-yl-phenoxy)-piperidin-1-yl]-methanone]
1000 to 10000 nM | CCC(=O)N1CCC(Oc2ccc(-c3cnc(OC)c(OC)c3)cc2)CC1 [Example 498, 1-{4-[4-(5,6-Dimethoxypyridin-3-yl)-phenoxy]-piperidin-1-yl}-propan-1-one]
1000 to 10000 nM | COc1cc(-c2ccc(OC3CCN(C(=O)C4CC4)CC3)cc2)cnc1OC [Example 499, Cyclopropyl-{4-[4-(5,6-dimethoxypyridin-3-yl)-phenoxy]-piperidin-1-yl}-methanone]
1000 to 10000 nM | CCC(=O)N1CCC(Oc2ccc(-c3ccc(Cl)c(Cl)c3)cc2)CC1 [Example 500, 1-[4-(3′,4′-Dichlorobiphenyl-4-yloxy)-piperidin-1-yl]-propan-1-one]
1000 to 10000 nM | O=C(C1CC1)N1CCC(Oc2ccc(-c3ccc(Cl)c(Cl)c3)cc2)CC1 [Example 501, Cyclopropyl-[4-(3′,4′-dichlorobiphenyl-4-yloxy)-piperidin-1-yl]-methanone]
1000 to 10000 nM | CCC(=O)N1CCC(Oc2ccc(-c3ccc4c(c3)OCCO4)cc2)CC1 [Example 502, 1-{4-[4-(2,3-Dihydro-1,4-benzodioxin-6-yl)-phenoxy]-piperidin-1-yl}-propan-1-one]
1000 to 10000 nM | O=C(C1CC1)N1CCC(Oc2ccc(-c3ccc4c(c3)OCCO4)cc2)CC1 [Example 503, Cyclopropyl-{4-[4-(2,3-dihydro-1,4-benzodioxin-6-yl)-phenoxy]-piperidin-1-yl}-methanone]
1000 to 10000 nM | CCC(=O)N1CCC(Oc2ccc(-c3ccc(OCc4ccccc4)cc3F)cc2)CC1 [Example 504, 1-[4-(4′-Benzyloxy-2′-fluoro-biphenyl-4-yloxy)-piperidin-1-yl]-propan-1-one]
1000 to 10000 nM | O=C(C1CC1)N1CCC(Oc2ccc(-c3ccc(OCc4ccccc4)cc3F)cc2)CC1 [Example 505, [4-(4′-Benzyloxy-2′-fluorobiphenyl-4-yloxy)-piperidin-1-yl]-cyclopropyl-methanone]
1000 to 10000 nM | CCC(=O)N1CCC(Oc2ccc(-c3cc(F)cc(OCc4ccccc4)c3)cc2)CC1 [Example 506, 1-[4-(5′-Benzyloxy-3′-fluorobiphenyl-4-yloxy)-piperidin-1-yl]-propan-1-one]
1000 to 10000 nM | O=C(C1CC1)N1CCC(Oc2ccc(-c3cc(F)cc(OCc4ccccc4)c3)cc2)CC1 [Example 507, [4-(5′-Benzyloxy-3′-fluorobiphenyl-4-yloxy)-piperidin-1-yl]-cyclopropyl-methanone]
1000 to 10000 nM | CCC(=O)N1CCC(Oc2ccc(-c3ccc(Oc4ccccc4)cc3)cc2)CC1 [Example 508, 1-[4-(4′-Phenoxybiphenyl-4-yloxy)-piperidin-1-yl]-propan-1-one]
1000 to 10000 nM | O=C(C1CC1)N1CCC(Oc2ccc(-c3ccc(Oc4ccccc4)cc3)cc2)CC1 [Example 509, Cyclopropyl-[4-(4′-phenoxybiphenyl-4-yloxy)-piperidin-1-yl]-methanone]
1000 to 10000 nM | CCC(=O)N1CCC(Oc2ccc(-c3cccc(Oc4ccccc4)c3)cc2)CC1 [Example 510, 1-[4-(3′-Phenoxybiphenyl-4-yloxy)-piperidin-1-yl]-propan-1-one]
1000 to 10000 nM | O=C(C1CC1)N1CCC(Oc2ccc(-c3cccc(Oc4ccccc4)c3)cc2)CC1 [Example 511, Cyclopropyl-[4-(3′-phenoxybiphenyl-4-yloxy)-piperidin-1-yl]-methanone]
1000 to 10000 nM | CC(C)C(=O)N1CCC(S(=O)(=O)c2ccc(-c3ccc4cccnc4c3)cc2)CC1 [Example 512, 2-Methyl-1-[4-(4-quinolin-7-yl-benzenesulfonyl)-piperidin-1-yl]-propan-1-one]
1000 to 10000 nM | CC(C)C(=O)N1CCC(S(=O)(=O)c2ccc(-c3ccc4ccncc4c3)cc2)CC1 [Example 513, 1-[4-(4-Isoquinolin-7-yl-benzenesulfonyl)-piperidin-1-yl]-2-methylpropan-1-one]
1000 to 10000 nM | CC(C)C(=O)N1CCC(S(=O)(=O)c2ccc(-c3ccc4cnccc4c3)cc2)CC1 [Example 514, 1-[4-(4-Isoquinolin-6-yl-benzenesulfonyl)-piperidin-1-yl]-2-methyl-propan-1-one]
1000 to 10000 nM | CC(C)C(=O)N1CCC(S(=O)(=O)c2ccc(-c3ccc4occc4c3)cc2)CC1 [Example 515, 1-[4-(4-Benzofuran-5-yl-benzenesulfonyl)-piperidin-1-yl]-2-methyl-propan-1-one]
1 to 99 nM | CCC(=O)N1CCC(Sc2ccc(-c3ccc4cccnc4c3)cc2)CC1 [Example 516, 1-(4-((4-(quinolin-7-yl)phenyl)thio)piperidin-1-yl)propan-1-one, HCl]
1 to 99 nM | CCC(=O)N1CCC(Sc2ccc(-c3ccc4cnccc4c3)cc2)CC1 [Example 517, 1-(4-((4-(Isoquinolin-6-yl)phenyl)thio)piperidin-1-yl)propan-1-one, HCl]

From patent US9902696B2, “1,4-substituted piperidine derivatives” (Cephalon, Inc., priority 2015, dated 2018)
